The values below come from patent publication US8546608B2, “Proteasome inhibitors and methods of using the same” (Cephalon, Inc., priority 2003, dated 2013).

pIC50: −log10 of the molar value.

The target of the assay is T1, 20S Human Erythrocyte Proteasome (HEP) (Homo sapiens, UniProt P20618+P28074).
T1 construct: 20S Human Erythrocyte Proteasome (HEP), purchased from Immatics Biotechnologies Inc; purchased Immatics Biotechnologies Inc., Tübingen, Germany; host or cells: human erythrocytes (natural source)
The assay is described as follows: Chymotrypsin-like activity of 20S Human Erythrocyte Proteasome (HEP), IC50 determination. Format: biochemical. Conditions: assay of Example C, inhibition of HEP. On the procedure:
Assay for Chymotrypsin-like Activity of 20S Human Erythrocyte Proteasome (HEP)
Proteasome chymotrypsin-like activity of compounds of the invention was assayed according to the following procedure.
In 96-well microtiter plates, 20S Human Erythrocyte Proteasome (HEP), purchased from Immatics Biotechnologies Inc., Tübingen, Germany was plated at 0.2 μg/mL (about 0.6 nM catalytic sites) in 0.04% SDS 20 mM Tris buffer. A fluorimetric substrate Suc-LLVY-AMC (succinyl-Leu-Leu-Val-Tyr-7-amido-4-methylcoumarin), purchased from Sigma Inc., St. Louis, Mo., USA was added to a final concentration of 100 μM from a stock solution of 10 mM in dimethylsulfoxide. Reaction volumes were 100 μl per well. […] Proteasome activity was determined under conditions in which substrate hydrolysis increased linearly with time and the change in fluorescence signal was proportional to the concentration of free AMC.
Determination of IC50 Values for HEP and α-Chymotrypsin Inhibitors
Inhibition of the chymotrypsin-like activity of HEP and of bovine α-chymotrypsin was determined by incubating the enzyme with various concentrations of putative inhibitors for 15 minutes at 37° C. (or room temperature for α-chymotrypsin) prior to the addition of substrate. Each experimental condition was evaluated in triplicate, and replicate experiments were performed for the inhibitors described herein.
In general, pIC50 refers to the negative decadic logarithm of the IC50, by convention in mol/L. Read a high pIC50 as a small IC50. The compound `CC(C)C[C@H](NC(=O)[C@H](CCCNC(=N)N[N+](=O)[O-])NC(=O)CC1CC2CCC1C2)B1O[C@@H]2C[C@@H]3C[C@@H](C3(C)C)[C@]2(C)O1` (stereo partly drawn) [D.3.89, 2-(Bicyclo[2.2.1]hept-2-yl)acetamide,N-[(1S)-1-[[[(1R)-1-[(3aS,4S,6S,7aR)-hexahydro-3a,5,5-trimethyl-4,6-methano-1,3,2-benzodioxaborol-2-yl]-3-methylbutyl]amino]carbonyl]-4-[[imino(nitroamino)methyl]amino]butyl]] had a pIC50 greater than 8.00.
`CC(C)C[C@H](NC(=O)[C@H](CCCNC(=N)N[N+](=O)[O-])NC(=O)CN1CCCCC1)B1O[C@@H]2C[C@@H]3C[C@@H](C3(C)C)[C@]2(C)O1` [D.1.9, 2-Piperidin-1-yl-acetamide,N-[(1S)-1-[[[(1R)-1-[(3aS,4S,6S,7aR)-hexahydro-3a,5,5-trimethyl-4,6-methano-1,3,2-benzodioxaborol-2-yl]-3-methylbutyl]amino]carbonyl]-4-[[imino(nitroamino)methyl]amino]butyl]] had a negative-log IC50 (pIC50) greater than 7.00.
On to `Cc1ccc(CSCCC(=O)N[C@@H](CCCNC(=N)N[N+](=O)[O-])C(=O)N[C@@H](CC(C)C)B2O[C@@H]3C[C@@H]4C[C@@H](C4(C)C)[C@]3(C)O2)cc1` [D.3.76, 3-[(4-methylbenzyl)sulfanyl]propanamide,N-[(1S)-1-[[[(1R)-1-[(3aS,4S,6S,7aR)-hexahydro-3a,5,5-trimethyl-4,6-methano-1,3,2-benzodioxaborol-2-yl]-3-methylbutyl]amino]carbonyl]-4-[[imino(nitroamino)methyl]amino]butyl]], for which the pIC50 is greater than 8.00.
With `CCCCN1CCC(CCCC(=O)N[C@@H](CCCNC(=N)N[N+](=O)[O-])C(=O)N[C@@H](CC(C)C)B(O)O)CC1` [E.1.14, Boronic acid, [(1R)-1-[[(2S)-5-[[imino(nitroamino)methyl]amino]-2-[(1-oxo-4-(1-butylpiperidin-4-yl)butyl)amino]-1-oxopentyl]amino]-3-methylbutyl]], the pIC50 was greater than 8.00.
In turn, `CCCCCCCCCC(=O)N[C@@H](CCCNC(=N)N[N+](=O)[O-])C(=O)N[C@@H](CC(C)C)B1O[C@H](C2CCCCC2)[C@@H](C2CCCCC2)O1` [F.1, Decanamide, N-[(1S)-1-[[[(1R)-1-[(4R,5R)-4,5-dicyclohexyl-[1,3,2]dioxaborolan-2-yl]-3-methylbutyl]amino]carbonyl]-4-[[imino(nitroamino)methyl]amino]butyl]-] had a pIC50 greater than 8.00.
Then `COC(=O)CCCC(=O)N[C@@H](CCCNC(=N)N[N+](=O)[O-])C(=O)N[C@@H](CC(C)C)B(O)O` [E.1.10, Boronic acid, [(1R)-1-[[(2S)-5-[[imino(nitroamino)methyl]amino]-2-[[4-(methoxycarbonyl)butanoyl]amino]-1-oxopentyl]amino]-3-methylbutyl]], with greater than 8.00; and `CCCCC(C)CCC(=O)N[C@@H](CCCNC(=N)N[N+](=O)[O-])C(=O)N[C@@H](CC(C)C)B1O[C@@H]2C[C@@H]3C[C@@H](C3(C)C)[C@]2(C)O1` (mixture of isomers) [D.3.87, (RS)-4-Methyloctanamide,N-[(1S)-1-[[[(1R)-1-[(3aS,4S,6S,7aR)-hexahydro-3a,5,5-trimethyl-4,6-methano-1,3,2-benzodioxaborol-2-yl]-3-methylbutyl]amino]carbonyl]-4-[[imino(nitroamino)methyl]amino]butyl]], with greater than 8.00; and `CC(C)=CCC[C@H](C)CC(=O)N[C@@H](CCCNC(=N)N[N+](=O)[O-])C(=O)N[C@@H](CC(C)C)B1O[C@@H]2C[C@@H]3C[C@@H](C3(C)C)[C@]2(C)O1` [D.3.77, (3S)-3,7-Dimethyl-oct-6-enoic acid amide,N-[(1S)-1-[[[(1R)-1-[(3aS,4S,6S,7aR)-hexahydro-3a,5,5-trimethyl-4,6-methano-1,3,2-benzodioxaborol-2-yl]-3-methylbutyl]amino]carbonyl]-4-[[imino(nitroamino)methyl]amino]butyl]], with greater than 8.00.
`CCCCCCCC/C=C/C(=O)N[C@@H](CCCNC(=N)N[N+](=O)[O-])C(=O)N[C@@H](CC(C)C)B1O[C@@H]2C[C@@H]3C[C@@H](C3(C)C)[C@]2(C)O1` [D.3.69, (E)-Undec-2-enoic acid amide,N-[(1S)-1-[[[(1R)-1-[(3aS,4S,6S,7aR)-hexahydro-3a,5,5-trimethyl-4,6-methano-1,3,2-benzodioxaborol-2-yl]-3-methylbutyl]amino]carbonyl]-4-[[imino(nitroamino)methyl]amino]butyl]] had a negative-log IC50 (pIC50) greater than 8.00.
In turn, `C=CCCCCCCCC(=O)N[C@@H](CCCNC(=N)N[N+](=O)[O-])C(=O)N[C@@H](CC(C)C)B1O[C@@H]2C[C@@H]3C[C@@H](C3(C)C)[C@]2(C)O1` [D.3.68, Dec-9-enamide,N-[(1S)-1-[[[(1R)-1-[(3aS,4S,6S,7aR)-hexahydro-3a,5,5-trimethyl-4,6-methano-1,3,2-benzodioxaborol-2-yl]-3-methylbutyl]amino]carbonyl]-4-[[imino(nitroamino)methyl]amino]butyl]] gave a pIC50 greater than 8.00.
The result for `CC(C)C[C@H](NC(=O)[C@H](CCCNC(=N)N[N+](=O)[O-])NC(=O)COc1ccc(Br)cc1)B1O[C@@H]2C[C@@H]3C[C@@H](C3(C)C)[C@]2(C)O1` [D.3.80, 2-(4-Bromophenoxy)-acetamide,N-[(1S)-1-[[[(1R)-1-[(3aS,4S,6S,7aR)-hexahydro-3a,5,5-trimethyl-4,6-methano-1,3,2-benzodioxaborol-2-yl]-3-methylbutyl]amino]carbonyl]-4-[[imino(nitroamino)methyl]amino]butyl]] reads greater than 8.00.
In turn, `CC(C)C[C@H](NC(=O)[C@H](CCCNC(=N)N[N+](=O)[O-])NC(=O)CCCCc1cccs1)B1O[C@@H]2C[C@@H]3C[C@@H](C3(C)C)[C@]2(C)O1` [D.3.115, 5-Thiophen-2-yl-pentanamide,N-[(1S)-1-[[[(1R)-1-[(3aS,4S,6S,7aR)-hexahydro-3a,5,5-trimethyl-4,6-methano-1,3,2-benzodioxaborol-2-yl]-3-methylbutyl]amino]carbonyl]-4-[[imino(nitroamino)methyl]amino]butyl]] gave a pIC50 greater than 8.00.
`CCCCCCCc1ccc(C(=O)N[C@@H](CCCNC(=N)N[N+](=O)[O-])C(=O)N[C@@H](CC(C)C)B2O[C@@H]3C[C@@H]4C[C@@H](C4(C)C)[C@]3(C)O2)cc1` [D.3.130, 4-Heptylbenzamide,N-[(1S)-1-[[[(1R)-1-[(3aS,4S,6S,7aR)-hexahydro-3a,5,5-trimethyl-4,6-methano-1,3,2-benzodioxaborol-2-yl]-3-methylbutyl]amino]carbonyl]-4-[[imino(nitroamino)methyl]amino]butyl]]: the pIC50 was greater than 8.00.
Then `CCCCC(CC)CCC(=O)N[C@@H](CCCNC(=N)N[N+](=O)[O-])C(=O)N[C@@H](CC(C)C)B1O[C@@H]2C[C@@H]3C[C@@H](C3(C)C)[C@]2(C)O1` (mixture of isomers) [D.3.78, (RS)-4-Ethyloctanamide,N-[(1S)-1-[[[(1R)-1-[(3aS,4S,6S,7aR)-hexahydro-3a,5,5-trimethyl-4,6-methano-1,3,2-benzodioxaborol-2-yl]-3-methylbutyl]amino]carbonyl]-4-[[imino(nitroamino)methyl]amino]butyl]], with greater than 8.00.
